Measured values: EP0107907A2, “Improvements in or relating to immunomodulating agents” (ELI LILLY AND COMPANY, priority 1982, dated 1984)

System: murine macrophages
Test: In vitro activation of murine macrophages (macrophage-mediated tumor cytotoxicity against P815 cells)
Type: cell-based
Conditions: for immunomodulatory activity: in the in vitro assay; for Percent Macrophage Cytotoxicity: 48 hours
Experimental: In one procedure, the ability of the compounds to activate murine macrophages in vitro was determined. Peritoneal macrophages were exposed to a compound of formula 1, 2, or 3 simultaneously with the addition of target cells. Tumor cytotoxicity of these treated macrophages was determined 48 hours later by trypan blue enumeration. The percentage of growth inhibition of P815 cells due to composition-mediated macrophage activation was calculated by comparison to that of P815 cells grown in the.presence of macrophages exposed to buffer.

Row | Structure (SMILES) | immunomodulatory activity | Percent Macrophage Cytotoxicity (Fosfomycin 10 µg/ml, Experiment 1) [%] | Percent Macrophage Cytotoxicity (Fosfomycin 10 µg/ml, Experiment 2) [%] | Percent Macrophage Cytotoxicity (Fosfomycin 100 µg/ml, Experiment 1) [%] | Percent Macrophage Cytotoxicity (Fosfomycin 100 µg/ml, Experiment 2) [%]
1 | C[C@H](N)C(=O)N[C@@H](C)P(=O)(O)O [alaphosphin, L-alanyl-L-1-aminb-- ethylphosphonic acid, reference compound] | did not exhibit immunomodulatory activity | – | – | – | –
2 | O=CN(O)CCCP(=O)(O)O [fosmidomycin, reference compound] | did not exhibit immunomodulatory activity | – | – | – | –
3 | C[C@@H]1O[C@@H]1P(=O)(O)O [Fosfomycin, reference compound] | – | 49 | 11 | 47 | 30
